Data as given in EP3072511A1, “The medical use of 3-aryl substituted 1-indanones” (Centrum Badan Molekularnych I Makromolekularnych Polskiej …, priority 2013, dated 2016).

Key:
[1] = test system: cell line HeLa (cervix carcinoma, human); assay: MTT cytotoxicity test, HeLa cells; details: 48 h, read-out: HeLa IC50 after 48h
bovine diarrhea virus = bovine diarrhea virus as counterpart of hepatitis virus C; cited from earlier work

Compound | IC50 [1] | selectivity index (SI) (bovine diarrhea virus)
COc1cc(OC)c2c(c1)C(=O)CC2c1ccc(Br)cc1 (stereo not drawn) [Compound 3a, 3-(para-bromophenyl) substituted 1-indanone] | 60 µM | 
NC(=O)c1ncn([C@@H]2O[C@H](CO)[C@@H](O)[C@H]2O)n1 [ribavirin] |  | 11.64
COP(=O)(OC)C1C(=O)c2cc3c(cc2C1c1ccccc1)OCO3 (stereo not drawn) [Compound 1a, 2-phosphoryl-3-phenyl substituted 1-indanone] | 90 µM | 
